Several values for one entry are separate records, joined by “and”; a condition that tells them apart may be missing. Equal values may be shown once.
Legend:
Type in all cases: in vivo
[1] = system: Caenorhabditis elegans; test: HTS runs (initial and follow-up): mOD, % Run and visual score (Table 3)
Protocol: The nematicidal activity of anthelmintic Compositions 48-118 were determined in accordance with the procedure outlined in Example 2.

[2] = system: gastrointestinal nematodes (trichostrongyle, Strongyloides, Trichuris, Nematodirus eggs); test: Sheep Test I: fecal egg per gram (EPG) counts; settings: for % Change, Strongyles EPG-5 day vs EPG-pre, Total/Mean / Strongyles EPG-5 day (22-Jan), Total/Mean / % Change, Strongyles EPG-7 day vs EPG-pre, Total/Mean / Strongyles EPG-7 day (24-Jan), Total/Mean: group mean; for % Change, Strongyles EPG-5 day vs EPG-pre, Total/Mean / Strongyles EPG-5 day (22-Jan), Total/Mean / Strongyles EPG-5 day (22-Jan): 5 days after treatment; for % Change, Strongyles EPG-7 day vs EPG-pre, Total/Mean / Strongyles EPG-7 day (24-Jan), Total/Mean / % Change, Strongyles EPG-7 day vs EPG-pre / Strongyles EPG-7 day (24-Jan): 7 days after treatment; for Strongyles EPG-5 day (22-Jan) / % Change, Strongyles EPG-7 day vs EPG-pre / Strongyles EPG-7 day (24-Jan): individual sheep
Protocol: Sheep naturally infected with a variety of gastrointestinal nematodes are purchased from local sources and are transported to the test site. The animals are housed in a manner to preclude further infection by nematode larvae. The animals are evaluated for the presence of adequate nematode burdens by performing a standard fecal egg per gram (EPG) count. Eggs are differentiated into the following groups: trichostrongyle (strongyle), Strongyloides, Trichuris, or Nematodinis. Only sheep judged by the study parasitologist to have adequate nematode infections are retained as test subjects.
The sheep are fed good quality hay (no concentrated rations) and water ad libitum. Following a five-day acclimation period, the sheep are randomly assigned by EPG count into treatment groups which include non-treated Negative control (placebo); Positive Control (commercially available ivermectin for sheep): and various anthelmintic compounds of the present invention (test compound) dissolved in DMSO. The first replicate of 10 animals is randomly assigned to groups 1-10; the second replicate of 10 animals is randomly assigned to groups 1-10; and the third replicate of 10 animals is randomly assigned to groups 1-10. Thus 10 groups of 3 animals each is created.
The randomization is performed on fecal samples collected 24-48 hours prior to scheduled treatment. The EPG counts are performed according to Zimmerman Research SOP # NMEPG.99.01
On treatment day, the animals are weighed and divided into groups with three animals per group as follows:
The placebo (DMSO), the commercially available drug, and the test anthelmintic compounds are administered in a 3 ml volume by subcutaneous injection using a sterile syringe fitted with a proper needle. The animal is adequately immobilized for injection of the placebo, commercially available drug, or test anthelmintic compound.
Following treatment, the animals are observed at hourly intervals for the first 8 hours, then daily until necropsy. They will continue to be housed in a manner to prevent further nematode infections. Fecal samples are taken for EPG counts on the 5th day and 7th day after treatment.
Seven days following treatment the sheep are humanely slaughtered in accordance with the Guide for the Care and Use of Laboratory Animals (DHEW Publication No. 86-23). Necropsy procedures are according to Zimmerman Research SOP # NCRGIH.99.01, Necropsy for Helminth Recovery, specifically for gastrointestinal nematodes. Fecal samples are taken for EPG counts during the sample collection process on this day. All animals are necropsied, but only the animals from the experimental treatment groups that have a significant egg count reduction on day 5 or day 7 will have intestinal material collected for nematode recovery and identification.

[3] = system: gastrointestinal nematodes; test: Sheep Test II: nematode recovery at necropsy, controlled test efficacy; settings: for Mean Ct., Abomasum Haemonchus / Mean Ct., Abomasum Ostertagia / Mean Ct., Large Intest. Trichuris / Mean Ct., Small Intest. Nematodirus / Mean Ct., Small Intestine Trichostrongylus: group mean; for Mean Ct., Abomasum Haemonchus / Mean Ct., Abomasum Ostertagia / Mean Ct., Large Intest. Trichuris / Mean Ct., Small Intest. Nematodirus / Mean Ct., Small Intestine Trichostrongylus / Worm Counts, Abomasum Haemonchus / Worm Counts, Abomasum ostertagia / Worm Counts, Large Intest. Trichuris / Worm Counts, Small Intest. Nematodirus / Worm Counts, Small Intestine Trichostrongylus: necropsy seven days following treatment; for Worm Counts, Abomasum Haemonchus / Worm Counts, Abomasum ostertagia / Worm Counts, Large Intest. Trichuris / Worm Counts, Small Intest. Nematodirus / Worm Counts, Small Intestine Trichostrongylus: individual sheep
Protocol: Sheep naturally infected with a variety of gastrointestinal nematodes are purchased from local sources and are transported to the test site. The animals are housed in a manner to preclude further infection by nematode larvae. The animals are evaluated for the presence of adequate nematode burdens by performing a standard fecal egg per gram (EPG) count. Eggs are differentiated into the following groups: trichostrongyle (strongyle), Strongyloides, Trichuris, or Nematodiris. Only sheep judged by the study parasitologist to have adequate nematode infections are retained as test subjects. The sheep are fed good quality hay (no concentrated rations) and water ad libitum. Following a five day acclimation period, the sheep are randomly assigned by EPG count into the following treatment groups: Groups 1-9, various anthelmintic compounds of the present invention (test compound) dissolved in DMSO: […] Group 11, non-treated Negative control (DMSO only). The first replicate of 1 I animals is randomly assigned to groups 1-1; the second replicate of 11 animals is randomly assigned to groups 1-11; and the third replicate of 11 animals is randomly assigned to groups 1-1. Thus 11 groups of 3 animals each are created. The placebo (DMSO), the commercially available drug, and the test anthelmintic compounds are administered in a 3 ml volume of DMSO by subcutaneous injection using a sterile syringe fitted with a sterile needle. The site of injection is clipped and swabbed with alcohol prior to injection. The animal is adequately immobilized for injection of the placebo, commercially available drug, or experimental compound. Seven days following treatment, all the sheep are weighed and humanely slaughtered in accordance with the Guide for the Care and Use of Laboratory Animals (DHEW Publication No. 86-23). Necropsy procedures are according to Zimmerman Research SOP # […].00.01, Necropsy for Helminth Recovery, specifically for gastrointestinal nematodes. Fecal samples are taken for EPG counts during the sample collection process on this day. Nematodes are recovered, identified, and enumerated according to Zimmerman Research SOP # […].00.01. All individuals performing nematode recoveries are blinded to treatment versus control animals.

[4] = Ivermectin 200 mcg/kg, controlled test procedure

Molecule: CCC1CCCCN1c1cc(Oc2ccc3oc4ccccc4c3c2)ncn1 (stereo not drawn) [AKC 109]
- Follow-up HTS Run % Run ([1]; Follow-up HTS Run): 121%
- Follow-up HTS Run Visual Score ([1]; Follow-up HTS Run): L4/AD/B!
- Follow-up HTS Run mOD ([1]; Follow-up HTS Run): 163 mOD
- Initial HTS Run % Run ([1]; Initial HTS Run): 132%
- Initial HTS Run Visual Score ([1]; Initial HTS Run): 1AD/B!
- Initial HTS Run mOD ([1]; Initial HTS Run): 258 mOD
- % Change, Strongyles EPG-5 day vs EPG-pre, Total/Mean ([2]; AKC 109 1.4 mg/kg): 76.43%
- Strongyles EPG-5 day (22-Jan), Total/Mean ([2]; AKC 109 1.4 mg/kg): 206.67 EPG
- % Change, Strongyles EPG-7 day vs EPG-pre, Total/Mean ([2]; AKC 109 1.4 mg/kg): 85.55%
- Strongyles EPG-7 day (24-Jan), Total/Mean ([2]; AKC 109 1.4 mg/kg): 126.67 EPG
- Strongyles EPG-5 day (22-Jan) ([2]; AKC 109 1.4 mg/kg, 1.4 mg/kg): 30 EPG and 590 EPG and 0 EPG
- % Change, Strongyles EPG-7 day vs EPG-pre ([2]; AKC 109 1.4 mg/kg, 1.4 mg/kg): 84.30% and −195.00% and 100.00%
- Strongyles EPG-7 day (24-Jan) ([2]; AKC 109 1.4 mg/kg, 1.4 mg/kg): 380 EPG and 0 EPG
- % Efficacy, Abomasum Haemonchus ([3]; AKC 109 .8 mg/kg, controlled test procedure): 100%
- Mean Ct., Abomasum Haemonchus ([3]; AKC 109 .8 mg/kg): 0
- Mean Ct., Abomasum Ostertagia ([3]; AKC 109 .8 mg/kg): 690
- Mean Ct., Large Intest. Trichuris ([3]; AKC 109 .8 mg/kg): 3
- Mean Ct., Small Intest. Nematodirus ([3]; AKC 109 .8 mg/kg): 7120
- Mean Ct., Small Intestine Trichostrongylus ([3]; AKC 109 .8 mg/kg): 130
- Worm Counts, Abomasum Haemonchus ([3]; AKC 109 .8 mg/kg): 0
- Worm Counts, Abomasum ostertagia ([3]; AKC 109 .8 mg/kg): 1100 and 280
- Worm Counts, Large Intest. Trichuris ([3]; AKC 109 .8 mg/kg): 5 and 0
- Worm Counts, Small Intest. Nematodirus ([3]; AKC 109 .8 mg/kg): 12020 and 2220
- Worm Counts, Small Intestine Trichostrongylus ([3]; AKC 109 .8 mg/kg): 240 and 20

Molecule: 22,23-dihydroavermectin B1 [ivermectin]
- % Change, Strongyles EPG-5 day vs EPG-pre, Total/Mean ([2]; Ivermectin .2 mg/kg): 99.62%
- Strongyles EPG-5 day (22-Jan), Total/Mean ([2]; Ivermectin .2 mg/kg): 3.33 EPG
- % Change, Strongyles EPG-7 day vs EPG-pre, Total/Mean ([2]; Ivermectin .2 mg/kg): 100.00%
- Strongyles EPG-7 day (24-Jan), Total/Mean ([2]; Ivermectin .2 mg/kg): 0.00 EPG
- Strongyles EPG-5 day (22-Jan) ([2]; Ivermectin .2 mg/kg): 10 EPG and 0 EPG (2×)
- % Change, Strongyles EPG-7 day vs EPG-pre ([2]; Ivermectin .2 mg/kg): 100.00%
- Strongyles EPG-7 day (24-Jan) ([2]; Ivermectin .2 mg/kg): 0 EPG
- % Efficacy, Abomasum Haemonchus [3, 4]: 86%
- % Efficacy, Abomasum ostertagia [3, 4]: 100%
- % Efficacy, Small Intest. Nematodirus [3, 4]: 98%
- % Efficacy, Small Intestine Trichostrongylus [3, 4]: 100%
- Mean Ct., Abomasum Haemonchus ([3]; Ivermectin 200 mcg/kg): 7
- Mean Ct., Abomasum Ostertagia ([3]; Ivermectin 200 mcg/kg): 0
- Mean Ct., Large Intest. Trichuris ([3]; Ivermectin 200 mcg/kg): 0
- Mean Ct., Small Intest. Nematodirus ([3]; Ivermectin 200 mcg/kg): 67
- Mean Ct., Small Intestine Trichostrongylus ([3]; Ivermectin 200 mcg/kg): 0
- Worm Counts, Abomasum Haemonchus ([3]; Ivermectin 200 mcg/kg): 0 (2×) and 20
- Worm Counts, Abomasum ostertagia ([3]; Ivermectin 200 mcg/kg): 0
- Worm Counts, Large Intest. Trichuris ([3]; Ivermectin 200 mcg/kg): 0
- Worm Counts, Small Intest. Nematodirus ([3]; Ivermectin 200 mcg/kg): 100 (2×) and 0
- Worm Counts, Small Intestine Trichostrongylus ([3]; Ivermectin 200 mcg/kg): 0

Reference: patent publication US20010049373A1, “Materials and methods for killing nematodes and nematode eggs” (priority 2000, published 2001)
